Measured values as given in patent US6462066B2, “Method and composition for treatment of ischemic neuronal reperfusion injury” (University of South Florida, priority 1999, dated 2002).

Key:
[1] = Dantrolene treatment of the patient of Example 1 (post-operative bilateral ischemic optic neuropathy), visual acuity and visual fields; format: in vivo, human; details: Example 1 patient
Protocol: A patient undergoes back surgery lasting 8 hours and, upon awakening after 16 hours, complains of not being able to see from their left eye. The surgery had lasted 8 hours, and 1 unit of blood had been lost. During surgery, their systolic blood pressure had dropped to 80 mm Hg. […] They are a contact lens wearer. previously having a corrected visual acuity of 20/20 bilaterally.
There is a relative afferent pupillary defect on the left. They have a sizeable loss of their right visual field, which is illustrated in FIGS. 2A and 2B. […] Both pupils are reactive, varying in diameter from 3.0 to 3.5 mm.
Their extra-ocular muscle movements, intraocular pressures, and anterior segment exam, are within normal limits. […] The right optic disc is of normal color. […] It is pulsatile, and each time a pulse occurs, it jumps away from the optic disc. This can be clearly seen with a 90 diopter lens and a portable Kowa slit lamp, or with a 20 diopter lens and a Keeler indirect opthalmoscope. The retina appears normal in both eyes. […] A clinical diagnosis of posterior ischemic optic neuropathy with resultant field defect and pending loss of vision in the right eye is also made. MRI of the optic nerves confirms these diagnoses. Bilateral swelling of the optic nerves is seen behind the optic discs. The swelling is more marked in the left optic nerve than in the right. MRI confirms that they have a swollen optic left nerve. A diagnosis of bilateral ischemic optic neuropathy is made: the blood supply to the left eye has been occluded, and the same process is occurring in the right eye. Just prior to discovering their loss of sight, their serum calcium is low, and the nurse administers intravenous calcium.
To prevent compression of the blood supply in the right eye, the patient is given high dosed pulsed steroids. However, excitotoxic damage of the retina from reperfusion injury is almost certain in the absence of the treatment of the present invention.
The patient is administered 2 gm solumedrol, and then 1 gm every 6 hours. Dantrolene is administered at 2 mg/kg every 2 hours for three treatments, and then 1 mg/kg every 8 hours.

excitotoxic damage = details: stated as known; cited from earlier work
[2] = Serum level of dantrolene in the patient of Example 2; format: in vivo, human; details: Example 2 patient
Protocol: (§1) He is placed on intravenous dantrolene, 2 mg/kg body weight q 2 hourly×3 followed q 8 hourly. In addition, […] is placed on solumedrol, 250 mg q 6 hourly. […] visual acuity fields are recorded on a daily basis. On day 3 dantrolene treatment is changed from intravenous to oral 500 mg po tid. On day 4 color vision is restored and on day 5 all treatment is stopped.
The serum level of dantrolene is 14×10^−6 gm/mL on day 4, and 15×10^−6 gm/mL on day 2.

[3] = Dantrolene treatment of the patient of Example 2 (post-operative bilateral ischemic optic neuropathy), visual acuity and visual fields; format: in vivo, human; details: Example 2 patient
Protocol: Their past medical history is significant for an episode of hyperglycemia approximately 45 years previously. They have been a non-smoker for the last 20 years, and prior to that they were a heavy smoker.
The operation lasts for approximately 10 hours. They are under general anesthesia for the duration of the operation. The estimated blood loss is 2200 mL during the operation, of which 1200 mL is replaced via a cell saver, and an additional 2 units of blood is given along with crystalloids. Their blood pressure drops once during the operation to 89 mm Hg. Before the surgery they are able to read with glasses. […] Strong venous pulsations are seen at the optic disc of the left eye. A diagnosis of bilateral ischemic optic neuropathy is made.
as §1

## O=C1CN(/N=C/c2ccc(-c3ccc([N+](=O)[O-])cc3)o2)C(O)=N1 [Dantrolene]
[1]; 24 hours after initiation of treatment, baseline no perception of light
  vision of the left eye: light perception
[1]; 24 hours later, dantrolene 2 mg/kg every 2 hours x3 then 1 mg/kg every 8 hours, with solumedrol, baseline uncorrected 20/70
  corrected visual acuity in the right eye: 20/30
[1]; 72 hours after treatment
  vision of the left eye: starts to perceive hand movement
[1]; by the fifth day, baseline 20/70
  uncorrected visual acuity in the right eye: 20/50
[1]; right eye, at the fifth day (lessens from 48 hours after starting treatment)
  inferior field loss: none
[1]; two months after discharge
  corrected visual acuity in the left eye at distance: counting fingers
  corrected visual acuity in the left eye at near distance: 20/800
Excitotoxic damage
  excitotoxic damage in an animal seizure model: prevents excitotoxic damage
[2]; day 2 (intravenous dantrolene)
  serum level of dantrolene: 15×10^−6 gm/mL
[2]; day 4 (oral 500 mg po tid from day 3)
  serum level of dantrolene: 14×10^−6 gm/mL
[3]; 16 hours postoperatively, intravenous dantrolene 2 mg/kg q 2 hourly x3 then q 8 hourly, with solumedrol, baseline no light perception in either eye
  visual acuity with glasses: counting fingers OU in the superior visual fields
[3]; day 4
  color vision: restored
